Here are results for eight compounds from patent US7235548B2, “Compounds and their use as positive AMPA receptor modulators” (NeuroSearch A/S, priority 1998, dated 2007).

Series [1] deals with ionotropic quisqualate (AMPA) receptors. The series is described as follows: In vitro inhibition of 3H-AMPA binding. Particulars: 5 nM 3H-AMPA, rat cerebral cortex membranes, 30 min at 2° C.; read-out: IC50 (concentration of the test substance which inhibits the specific binding of 3H-AMPA by 50%). An excerpt: L-glutamate (GLU) is the major excitatory neurotransmitter in the mammalian central nervous system. From electrophysiological- and binding studies, there appear to be at least three subtypes of GLU receptors, tentatively named N-methyl-D-aspartate (NMDA)-, quisqualate- and kainate receptors. GLU receptor subtypes sensitive to quisqualate and kainate as a group are often referred to as non-NMDA receptors. Receptor binding studies using the labelled agonists ^3H-AMPA (α-amino-3-hydroxy-5-methyl-4-isoxazolepropionic acid) (for quisqualate receptors) and ^3H-kainate (for kainate receptors) have shown different antagonist selectivities and regional distribution. AMPA has been known for several years to be a potent and selective agonist at the traditionally named quisqualate receptors. Activation of quisqualate receptors by AMPA is associated with Na^+ influx and K^+ efflux leading to depolarization.
The non-NMDA receptors have recently been reclassified to include the quisqualate activated metabotropic receptor type, linked to the inositol triphosphate and diacylglycerate metabolism. […] Selective activation of the metabotropic type has been claimed for trans-ACPD. Recently, the potent and competitive non-NMDA receptor antagonists CNQX and NBQX have been described, and CNQX have been reported not to block the effect of quisqualate at the metabotropic receptor subtype. ^3H-AMPA is a selective radioligand for labelling the ionotropic quisqualate (AMPA) receptors.
Preparations are performed at 0–4° C. unless otherwise indicated. Cerebral cortex from male Wistar rats (150–200 g) is homogenized for 5–10 sec in 20 ml Tris-HCl (30 mM, pH 7.4) using an Ultra-Turrax homogenizer. The suspension is centrifuged at 27,000×g for 15 min and the pellet is washed three times with buffer (centrifuged at 27,000×g for 10 min). The washed pellet is homogenized in 20 ml of buffer and incubated on a water bath (37° C.) for 30 min to remove endogenous glutamate and then centrifuged for 10 min at 27,000×g. The pellet is then homogenized in buffer and centrifuged at for 10 min at 27,000×g. The final pellet is resuspended in 30 ml buffer and the preparation is frozen and stored at −20° C.
The membrane preparation is thawed and centrifuged at 2° C. for 10 min at 27,000×g for 10 min. The pellet is washed twice with 20 ml 30 mM Tris-HCl containing 2.5 mM CaCl2, pH 7.4 using an Ultra-Turrax homogenizer and centrifuged for 10 min at 27,000×g. The final pellet is resuspended in 30 mM Tris-HCl containing 2.5 mM CaCl2 and 100 mM KSCN, pH 7.4 (100 ml per g of original tissue) and used for binding assays. Aliquots of 0.5 (0.2) ml are added to 25 (20) μl of test solution and 25(20) μl of ^3H-AMPA (5 nM, final concentration), mixed and incubated for 30 min at 2° C. Non-specific binding is determined using L-glutamate (0.6 mM, final concentration). After incubation the 550 μl samples are added 5 ml of ice-cold buffer and poured directly onto Whatman GF/C glass fibre filters under suction and immediately washed with 5 ml of ice-cold buffer. The 240 μl samples are filtered over glass fibre filter using a Skatron cell harvrester. The filters are washed with 3 ml ice-cold buffer. The amount of radioactivity on the filters is determined by conventional liquid scintillation counting. Specific binding is total binding minus non-specific binding.
The test value will be given as the IC50 (the concentration (μM) of the test substance which inhibits the specific binding of ^3H-AMPA by 50%)

For series [2], the system named is AMPA receptor. The series is described as follows: Voltage clamp (whole cell patch clamp), current induced by AMPA in cultured mouse neocortical neurons. In kind it is cell-based. As for the experimental part: Experiments were performed in voltage clamp using conventional whole cell patch clamp methods (Hamill et al., 1981), essentially as described previously (Mathiesen et al., 1998). The following salt solutions were used (mM): NaCl (140), KCl (4), CaCl2 (2), MgCl2 (1), Sucrose (30), Tetrodotoxin (0.0003), Bicuculline Methiodide (0.005) and HEPES (10, pH 7.4). Intracellular solution (mM): CsCl (120), CsF (20), MgCl2 (2), EGTA (10), HEPES (10, pH=7.2).
Mouse neocortical neurons were cultured essentially as described by Drejer et al. (1987). Briefly, the forebrains from embryonic (E17) NMRI mice were removed under sterile conditions. The tissue was chopped in 0.4 mm cubes and the triturated with trypsin (12.5 μg/ml) and DNAse (2.5 μg/ml), 15 min, 37° C. The cells were suspended at a concentration of 1×10^6 cells/ml in a slightly modified DMEM which contained horse serum (10% (v/v)), penicillin (333 U/ml), paraaminobenzoic acid (1 mg/ml), L-glutamine (0.5 mM), insulin (0.08 U/ml) and KCl (23.8 mM). The cell suspension was subsequently inoculated into poly-L-lysine coated 35 mm Petri dishes (2 ml/dish). Glass coverslips (3.5 mm) were placed in the dishes before coating. After 24 hr in culture, the medium was replaced by freshly made medium containing 1% N2 supplement instead of serum.
The cells were kept in culture for 7–14 days at 37° C. (5% CO2/95% O2) before experiments were carried out.
Electronics, programs and data acquisition: The amplifier used was the EPC-9 (HEKA-electronics, Lambrect, Germany) run by a Power Macintosh G3 computer via an ITC-16 interface. Experimental conditions were set with the Pulse-software accompanying the amplifier. Data were low pass filtered and sampled directly to hard-disk at a rate of 3 times the cut-off frequency.
Pipettes and electrodes: Pipettes were pulled from borosilicate glass (Modulohm, Copenhagen, Denmark) using a horizontal electrode puller (Zeitz-Instrumente, Augsburg, Germany). The pipette resistances were 1.7–2.4 MW in the salt solutions used in these experiments. The pipette electrode was a chloridized silver wire, and the reference was a silverchloride pellet electrode (In Vivo Metric, Healdsburg, USA) fixed to the experimental chamber. The electrodes were zeroed with the open pipette in the bath just prior to sealing.
Experimental procedure: Coverslips were transferred to a […] experimental chamber mounted on the stage of an inverted microscope (IMT-2, Olympus) supplied with Nomarski optics. The neurons were continuously superfused with extracellular saline at a rate of 2.5 ml/min. After giga-seal formation (1–5 GW, success-rate≈90%) the whole cell configuration was attained by suction.
The cells were held at a holding voltage of −60 mV and at the start of each experiment the current was continuously measured for at least 30 sec to ensure a stable leak current. AMPA-containing solutions were delivered to the chamber through a custom-made gravity-driven flowpipe, the tip of which was placed approximately 50 μm from the cell. Application was triggered when the tubing connected to the flow pipe was compressed by a valve controlled by the Pulse-software. AMPA (30 μM) was applied for 1 sec every 45 sec. After obtainment of responses of a repeatable amplitude the compound to be tested was included in both the chamber and in the AMPA-containing solution. The compound was present until responses of a new repeatable was obtained.
The sample interval in all experiments was 310 μsec.
All experiments were performed at room temperature (20–25° C.).

As for `Cc1cc2c(cc1S(N)(=O)=O)S(=O)(=O)NC(C1CCCCC1)N2` (stereo not shown) [Compound 113, 3-Cyclohexyl-6-methyl-7-sulfamoyl-1,2,3,4-tetrahydro-1,2,4-benzothiadiazine-1,1-dioxide], the melting point lay in the range of 231 to 233 °C. For the same compound, the IC50 in series [1] turned out to be 13 µM. In the case of `O=S1(=O)NC(C2CCCCC2)Nc2ccc(S(=O)(=O)N3CC=CCC3)cc21` (stereo not shown) [Compound 58, 3-Cyclohexyl-7-(1′,2′,3′,6′-tetrahydropiperidino)sulfonyl-1,2,3,4-tetrahydro-1,2,4-benzothiadiazine-1,1-dioxide], the IC50 in series [1] amounted to 3.4 µM. With `CC(=NO)c1ccc2c(c1)S(=O)(=O)NC(C1CCCCC1)N2` (stereo not shown) [Compound 14, 3-Cyclohexyl-7-(1-hydroxyiminoethyl)-1,2,3,4-tetrahydro-1,2,4-benzothiadiazine-1,1-dioxide], the IC50 in series [1] came out at 45 µM. Regarding `CN(C)S(=O)(=O)c1ccc2c(c1)S(=O)(=O)NC(C1CCCCC1)N2` (stereo not shown) [Compound 47, 3-Cyclohexyl-7-dimethylaminosulfonyl-1,2,3,4-tetrahydro-1,2,4-benzothiadiazine-1,1-dioxide], the IC50 in series [1] stood at 5.3 µM. `Cc1cc2c(cc1-c1ccccn1)S(=O)(=O)NC(C1CCCCC1)N2` (stereo not shown) [Compound 111, 3-Cyclohexyl-6-methyl-7-(2′-pyridyl)-1,2,3,4-tetrahydro-1,2,4-benzothiadiazine-1,1-dioxide]: in series [2] (after wash out of the compound), the “reversibility of the potentiation” value is reported as “reversible”. The “potentiation of the current induced by application of 30 μM AMPA” value in series [2] (compound 10 μM, holding voltage −60 mV) is reported as “potentiated”. Take `CC(=O)c1ccc2c(c1)S(=O)(=O)NC(C1CCCCC1)N2` (stereo not shown) [Compound 13, 3-Cyclohexyl-7-acetyl-1,2,3,4-tetrahydro-1,2,4-benzothiadiazine-1,1-dioxide]: in series [1], the IC50 came out at 22 µM.

In the case of `O=S1(=O)NC(C2CCCCC2)Nc2ccc(S(=O)(=O)N3CCCC3)cc21` (stereo not shown) [Compound 49, 3-Cyclohexyl-7-pyrrolidinosulfonyl-1,2,3,4-tetrahydro-1,2,4-benzothiadiazine-1,1-dioxide], the IC50 in series [1] was determined as 17 µM. The same measure, in the same setting: the result for `O=S1(=O)NC(C2CC3C=CC2C3)Nc2ccc(S(=O)(=O)N3CCCCC3)cc21` (stereo not shown) [Compound 57, 3-Bicyclo[2.2.1]hept-5′-en-2′-yl-7-piperidinosulfonyl-1,2,3,4-tetrahydro-1,2,4-benzothiadiazine-1,1-dioxide] reads 26 µM.

As a reminder, the melting point is the temperature of the solid-liquid transition.
